How the values were obtained:
[1] = biological target: Sigma non-opioid intracellular receptor 1 (Rattus norvegicus, UniProt Q9R0C9); experiment: Inhibition of [3H]pentazocine binding to Opioid receptor sigma 1
Rattus norvegicus = experiment: Tested for the anticonvulsant activity administered 60 min orally before MES induction; type: functional; details: po, 1 h
[2] = biological target: T1, Sodium channel alpha subunits; brain (Types I, II, III) (Rattus norvegicus, UniProt P04775+P04774+P08104); experiment: Inhibition of [3H]batrachotoxin binding to rat brain sodium channel
[3] = biological target: T1, Sodium channel alpha subunits; brain (Types I, II, III); experiment: Inhibition of [3H]saxitoxin binding to rat brain sodium channel; type: tissue-based
[4] = Protective index (PI) is the ratio of TD50 in the rotarod test over the ED50 in the anticonvulsant test.; type: functional
Mus musculus = species on record: Mus musculus; experiment: Toxic dose causing 50% treated mice fall from the rotarod was evaluated
[5] = Lethal dose in rats; type: toxicity; details: rat, in vivo

Sequence of Sigma non-opioid intracellular receptor 1 (Q9R0C9 whole entry): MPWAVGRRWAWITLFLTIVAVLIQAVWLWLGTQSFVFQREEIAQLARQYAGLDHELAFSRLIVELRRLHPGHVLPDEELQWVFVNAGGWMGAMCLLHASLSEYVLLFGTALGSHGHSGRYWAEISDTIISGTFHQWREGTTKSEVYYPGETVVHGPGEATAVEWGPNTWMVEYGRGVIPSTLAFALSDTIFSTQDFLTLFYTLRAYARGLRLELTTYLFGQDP

| Structure (SMILES) | IC50 [1] [µM] | ED50 (Rattus norvegicus) [mg/kg] | IC50 [2] [µM] | IC50 [3] [µM] | PI [4] | TD50 (Mus musculus) [mg/kg] | LD50 [5] [mg/kg] | IC50 ([2]; read-out: IC50) [µM] |
| --- | --- | --- | --- | --- | --- | --- | --- | --- |
| COc1ccc(CN[C@@H](C)C(N)=O)cc1 | > 10 | > 100 | 145.8 | > 300 | – | – | – | – |
| C[C@@H](NCc1ccc(OCCCc2ccccc2)cc1)C(N)=O | 0.28 | 12.6 | 7.8 | > 300 | 102 | 1280 | – | – |
| C[C@H](NCc1ccc(OCCCc2ccccc2)cc1)C(N)=O | 0.0193 | 6.7 | 13.2 | > 300 | 87.2 | 584 | – | – |
| C[C@H](NCc1ccc(OCCCCc2ccccc2)cc1)C(N)=O | 0.55 | 12.4 | 1.1 | > 300 | 81 | 1000 | – | – |
| C[C@H](NCc1ccc(OCc2ccccc2)cc1)C(=O)O | – | > 100 | 150.8 | > 300 | – | – | – | – |
| C[C@@H](NCc1ccc(OCc2cccc(F)c2)cc1)C(N)=O | 0.28 | 7.2 | 8.5 | > 300 | 87.8 | 584 | – | – |
| C[C@@H](NCc1ccc(NCc2cccc(F)c2)cc1)C(N)=O | 0.28 | 1.7 | 11.3 | > 300 | 160 | 272 | – | – |
| C[C@H](NCc1ccc(OCCCCCc2ccccc2)cc1)C(N)=O | > 10 | 12.5 | 1.4 | > 300 | 80.8 | 1010 | – | – |
| CNC(=O)[C@H](CO)NCc1ccc(OCc2cccc(F)c2)cc1 | 0.588 | 13 | 26.3 | > 300 | 70.4 | 915 | – | – |
| COc1ccc2c(c1)[C@]13CCCC[C@@H]1[C@H](C2)N(C)CC3 [DEXTROMETHORPHAN] | – | 12.9 | 1.3 | > 100 | – | – | 234 | – |
| CNC(=O)[C@@H](CO)NCc1ccc(OCc2cccc(F)c2)cc1 | 6.6 | 6.4 | 17.9 | > 300 | 92.6 | 593 | – | – |
| Nc1nnc(-c2cccc(Cl)c2Cl)c(N)n1 [LAMOTRIGINE] | > 10 | 2.2 | 185.9 | > 100 | 38.2 | 84 | – | – |
| CS(=O)(=O)O.C[C@H](NCc1ccc(OCc2cccc(F)c2)cc1)C(N)=O [SAFINAMIDE MESYLATE] | 0.0197 | 8 | – | > 300 | 78.2 | 626 | – | 8.2 |
| C[C@H](NCc1ccc(NCc2cccc(F)c2)cc1)C(N)=O | 0.0344 | 6.6 | 13.9 | > 300 | 88.3 | 583 | – | – |
